Laboratory results as given in patent publication US10479786B2, “Protein kinase inhibitors” (Princeton Drug Discovery Inc, priority 2016, dated 2019).

How the values were obtained:
[1] = Pharmacokinetics in Sprague-Dawley rats, 2-in-1 dosing; type: in vivo; conditions: rat; for V: intravenous 1 mg/kg
Experimental: Sprague-Dawley rats (approximate weight 275-300 g, N=3) were dosed intravenously at 5 mL/kg and orally at 10 mL/kg with the above dosing solutions. Blood samples were collected into tubes containing EDTA as the anticoagulant at 0, 0.25 (intravenous only), 0.5, 1, 2, 4, 8, 10, and 24 h post-dosing, and plasma samples were prepared by centrifugation. The plasma samples were mixed with 3× volumes of acetonitrile containing 100 nM reserpine as the internal standard, and centrifuged at 4000 RPM for 15 min. The supernatants were injected for LC/MS analysis which were carried out on a AB Sciex 4000 Q Trap LC/MS/MS system coupled with Shimadzu Prominence UFLCXR 20 series (including a CBM-20A controller, two LC-20ADXR solvent delivery units, SIL-20AC HT autosampler, CTO-20A column oven, and a SPD-20A UV detector). The samples were separated on a Phenomenex Columbus column (C18, 4 μm, 50×2 mm) eluted with two solvent systems: 2 mM ammonium acetate in water containing 0.1% formic acid (A) and methanol (B) at a linear gradient starting with 25% B. Electrospray ionization in positive mode was used to acquire LC/MS/MS data.

[2] = Lung tissue and plasma concentration ratios in mice; type: in vivo, CD-1 mouse; conditions: single oral dose 5 mg/kg, 2-in-1 with dasatinib, all time points tested
Experimental: CD-1 mouse (approximate weight 30 g, N=3) were dosed by oral gavage at 10 mL/kg. Blood samples were collected into tubes containing EDTA as the anticoagulant at 1, 2, 4, 10 h post-dosing for Compound X, and predose, 1, 2, 3, 8, 10 and 24 h post-dosing for Compound XI. The plasma samples were prepared by centrifugation. Lung samples were also collected at each of the above time points. The lung samples were homogenated in 4× distilled water (v/w). The plasma samples and the homogenated lung tissue samples were mixed with 3× volumes of acetonitrile containing 100 nM reserpine as the internal standard, and centrifuged at 4000 RPM for 15 min. The supernatants were injected for LC/MS analysis which were carried out on a AB Sciex 4000 Q Trap LC/MS/MS system coupled with Shimadzu Prominence UFLCXR 20 series (including a CBM-20A controller, two LC-20ADXR solvent delivery units, SIL-20AC HT autosampler, CTO-20A column oven, and a SPD-20A UV detector). The samples were separated on a Phenomenex Columbus column (C18, 4 μm, 50×2 mm) eluted with two solvent systems: 2 mM ammonium acetate in water containing 0.1% formic acid (A) and methanol (B) at a linear gradient starting at 25%. Electrospray ionization in positive mode was used to acquire LC/MS/MS data.

EGFR = molecular target: T1, EGFR (Homo sapiens, UniProt P00533); experiment: Off-chip Mobility Shift Assay, kinase inhibition; type: biochemical; conditions: recombinant EGFR; for inhibition at 0.01 µM: at 10 nM
T1 construct: purchased Carna Biosciences, Inc

KIT(V560G) = molecular target: T2, KIT(V560G) (Homo sapiens, UniProt P10721, V560G); experiment: Off-chip Mobility Shift Assay, kinase inhibition; type: biochemical; conditions: recombinant KIT(V560G); for inhibition at 0.01 µM: at 10 nM
T2 construct: purchased Carna Biosciences, Inc

YES(T348I) = molecular target: T3, YES(T348I) (Homo sapiens, UniProt P07947, T348I); experiment: Off-chip Mobility Shift Assay, kinase inhibition; type: biochemical; conditions: recombinant YES(T348I)
T3 construct: purchased Carna Biosciences, Inc

ABL(T315I) = molecular target: T4, ABL(T315I) (Homo sapiens, UniProt P00519, T315I); experiment: Off-chip Mobility Shift Assay, kinase inhibition; type: biochemical; conditions: at 1 nM; recombinant ABL(T315I)
T4 construct: purchased Carna Biosciences, Inc

p38β = molecular target: T5, p38β (Homo sapiens, UniProt Q15759); experiment: Off-chip Mobility Shift Assay, kinase inhibition; type: biochemical; conditions: recombinant p38β; for inhibition at 0.01 µM: at 10 nM
T5 construct: purchased Carna Biosciences, Inc

p38α = molecular target: T6, p38α (Homo sapiens, UniProt Q16539); experiment: Off-chip Mobility Shift Assay, kinase inhibition; type: biochemical; conditions: recombinant p38α; for inhibition at 0.01 µM: at 10 nM
T6 construct: purchased Carna Biosciences, Inc

RAF1 = molecular target: T7, RAF1 (Homo sapiens, UniProt P04049, Y340D/Y341D); experiment: Off-chip Mobility Shift Assay, kinase inhibition; type: biochemical; conditions: recombinant RAF1; for inhibition at 0.01 µM: at 10 nM
T7 construct: purchased Carna Biosciences, Inc

HER2 = molecular target: T8, HER2 (Homo sapiens, UniProt P04626); experiment: Off-chip Mobility Shift Assay, kinase inhibition; type: biochemical; conditions: recombinant HER2; for inhibition at 0.01 µM: at 10 nM
T8 construct: purchased Carna Biosciences, Inc

FYN(isoform b) = molecular target: T9, FYN(isoform b) (Homo sapiens, UniProt P06241); experiment: Off-chip Mobility Shift Assay, kinase inhibition; type: biochemical; conditions: recombinant FYN(isoform b)
T9 construct: purchased Carna Biosciences, Inc

KIT = molecular target: T10, KIT (Homo sapiens, UniProt P10721); experiment: Off-chip Mobility Shift Assay, kinase inhibition; type: biochemical; conditions: recombinant KIT; for inhibition at 0.01 µM: at 10 nM
T10 construct: purchased Carna Biosciences, Inc

BRAF = molecular target: T11, BRAF (Homo sapiens, UniProt P15056); experiment: Off-chip Mobility Shift Assay, kinase inhibition; type: biochemical; conditions: recombinant BRAF; for inhibition at 0.01 µM: at 10 nM
T11 construct: purchased Carna Biosciences, Inc

EGFR(d746-750) = molecular target: T12, EGFR(d746-750) (Homo sapiens, UniProt P00533, DEL746-750); experiment: Off-chip Mobility Shift Assay, kinase inhibition; type: biochemical; conditions: at 10 nM; recombinant EGFR(d746-750)
T12 construct: purchased Carna Biosciences, Inc

RET(Y791F) = molecular target: T13, RET(Y791F) (Homo sapiens, UniProt P07949, Y791F); experiment: Off-chip Mobility Shift Assay, kinase inhibition; type: biochemical; conditions: at 10 nM; recombinant RET(Y791F)
T13 construct: purchased Carna Biosciences, Inc

PDGFRα(V561D) = molecular target: T14, PDGFRα(V561D) (Homo sapiens, UniProt P16234, V561D); experiment: Off-chip Mobility Shift Assay, kinase inhibition; type: biochemical; conditions: at 10 nM; recombinant PDGFRα(V561D)
T14 construct: purchased Carna Biosciences, Inc

RET(G691 S) = molecular target: T15, RET(G691 S) (Homo sapiens, UniProt P07949, G691S); experiment: Off-chip Mobility Shift Assay, kinase inhibition; type: biochemical; conditions: at 10 nM; recombinant RET(G691 S)
T15 construct: purchased Carna Biosciences, Inc

PDGFRα(D842V) = molecular target: T16, PDGFRα(D842V) (Homo sapiens, UniProt P16234, D842V); experiment: Off-chip Mobility Shift Assay, kinase inhibition; type: biochemical; conditions: at 10 nM; recombinant PDGFRα(D842V)
T16 construct: purchased Carna Biosciences, Inc

WNK3 = molecular target: T17, WNK3 (Homo sapiens, UniProt Q9BYP7); experiment: Off-chip Mobility Shift Assay, kinase inhibition; type: biochemical; conditions: at 10 nM; recombinant WNK3
T17 construct: purchased Carna Biosciences, Inc

PKD1 = molecular target: T18, PKD1 (Homo sapiens, UniProt Q15139); experiment: Off-chip Mobility Shift Assay, kinase inhibition; type: biochemical; conditions: at 10 nM; recombinant PKD1
T18 construct: purchased Carna Biosciences, Inc

[3] = Table 2, co-dosed with compound IV
[4] = Table 3, co-dosed with compound X

T6 sequence (Q16539 whole entry): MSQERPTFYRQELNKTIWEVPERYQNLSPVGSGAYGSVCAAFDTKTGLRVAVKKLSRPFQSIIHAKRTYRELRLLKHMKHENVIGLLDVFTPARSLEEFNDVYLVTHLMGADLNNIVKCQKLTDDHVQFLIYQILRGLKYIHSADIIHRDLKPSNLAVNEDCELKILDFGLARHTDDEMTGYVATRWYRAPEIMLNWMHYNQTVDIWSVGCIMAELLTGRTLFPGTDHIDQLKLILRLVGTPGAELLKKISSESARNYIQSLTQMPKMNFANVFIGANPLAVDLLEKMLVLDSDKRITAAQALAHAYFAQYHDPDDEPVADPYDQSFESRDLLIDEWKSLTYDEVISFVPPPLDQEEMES
T2 sequence (P10721 26-976 V560G): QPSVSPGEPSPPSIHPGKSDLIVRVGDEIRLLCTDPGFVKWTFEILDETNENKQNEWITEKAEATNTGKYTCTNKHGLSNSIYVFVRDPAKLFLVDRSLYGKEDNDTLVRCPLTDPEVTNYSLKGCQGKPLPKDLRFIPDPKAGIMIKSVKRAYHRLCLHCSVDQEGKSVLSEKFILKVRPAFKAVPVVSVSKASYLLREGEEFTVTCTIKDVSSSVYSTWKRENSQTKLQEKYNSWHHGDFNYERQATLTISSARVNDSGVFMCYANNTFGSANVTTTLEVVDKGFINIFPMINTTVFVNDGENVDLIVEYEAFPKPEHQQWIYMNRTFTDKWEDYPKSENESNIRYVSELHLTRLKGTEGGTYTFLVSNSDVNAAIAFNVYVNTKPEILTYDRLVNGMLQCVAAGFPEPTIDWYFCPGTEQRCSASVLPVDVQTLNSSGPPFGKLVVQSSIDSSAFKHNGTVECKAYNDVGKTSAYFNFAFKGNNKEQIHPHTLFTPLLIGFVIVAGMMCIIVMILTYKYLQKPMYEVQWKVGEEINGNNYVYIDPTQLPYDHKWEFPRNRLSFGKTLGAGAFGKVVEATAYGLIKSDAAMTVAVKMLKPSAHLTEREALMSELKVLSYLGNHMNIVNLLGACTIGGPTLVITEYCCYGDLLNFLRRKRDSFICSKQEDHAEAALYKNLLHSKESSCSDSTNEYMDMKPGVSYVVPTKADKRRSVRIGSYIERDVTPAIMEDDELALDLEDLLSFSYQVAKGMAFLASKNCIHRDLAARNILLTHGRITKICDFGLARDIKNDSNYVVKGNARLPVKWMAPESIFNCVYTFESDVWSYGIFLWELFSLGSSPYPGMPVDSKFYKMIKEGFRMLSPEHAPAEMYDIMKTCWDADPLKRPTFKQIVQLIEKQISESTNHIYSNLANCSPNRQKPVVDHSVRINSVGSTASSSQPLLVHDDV
T11 sequence (P15056 whole entry): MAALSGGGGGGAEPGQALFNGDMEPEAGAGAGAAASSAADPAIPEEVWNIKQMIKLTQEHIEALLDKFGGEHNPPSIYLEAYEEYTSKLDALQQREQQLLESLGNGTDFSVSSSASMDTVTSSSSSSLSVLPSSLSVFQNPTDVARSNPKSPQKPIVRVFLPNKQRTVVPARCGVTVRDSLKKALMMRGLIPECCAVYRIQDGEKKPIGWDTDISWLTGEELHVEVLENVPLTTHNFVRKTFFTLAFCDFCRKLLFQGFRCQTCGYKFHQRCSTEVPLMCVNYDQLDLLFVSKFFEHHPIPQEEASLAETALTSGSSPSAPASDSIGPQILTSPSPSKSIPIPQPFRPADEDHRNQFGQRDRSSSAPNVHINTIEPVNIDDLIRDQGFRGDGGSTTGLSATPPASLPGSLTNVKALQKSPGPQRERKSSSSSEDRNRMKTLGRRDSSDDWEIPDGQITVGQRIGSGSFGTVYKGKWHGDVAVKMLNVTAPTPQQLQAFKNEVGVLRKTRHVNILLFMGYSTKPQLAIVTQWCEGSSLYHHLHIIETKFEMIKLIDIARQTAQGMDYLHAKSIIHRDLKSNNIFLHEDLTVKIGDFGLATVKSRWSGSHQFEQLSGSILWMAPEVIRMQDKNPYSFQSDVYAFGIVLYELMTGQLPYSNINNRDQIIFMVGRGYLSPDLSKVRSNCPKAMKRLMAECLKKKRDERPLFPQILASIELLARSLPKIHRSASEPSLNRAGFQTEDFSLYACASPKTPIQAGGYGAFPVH
T7 sequence (P04049 306-648 Y340D/Y341D limits assumed): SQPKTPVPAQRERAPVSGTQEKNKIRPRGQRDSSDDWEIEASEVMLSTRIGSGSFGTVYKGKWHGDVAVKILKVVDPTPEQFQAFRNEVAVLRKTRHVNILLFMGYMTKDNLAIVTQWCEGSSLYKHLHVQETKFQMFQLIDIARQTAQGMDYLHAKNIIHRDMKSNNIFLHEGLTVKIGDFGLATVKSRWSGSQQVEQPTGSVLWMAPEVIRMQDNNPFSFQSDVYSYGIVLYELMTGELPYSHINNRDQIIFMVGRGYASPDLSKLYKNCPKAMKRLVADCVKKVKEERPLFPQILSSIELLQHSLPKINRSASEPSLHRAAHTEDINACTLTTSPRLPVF
T1 sequence (P00533 25-1210): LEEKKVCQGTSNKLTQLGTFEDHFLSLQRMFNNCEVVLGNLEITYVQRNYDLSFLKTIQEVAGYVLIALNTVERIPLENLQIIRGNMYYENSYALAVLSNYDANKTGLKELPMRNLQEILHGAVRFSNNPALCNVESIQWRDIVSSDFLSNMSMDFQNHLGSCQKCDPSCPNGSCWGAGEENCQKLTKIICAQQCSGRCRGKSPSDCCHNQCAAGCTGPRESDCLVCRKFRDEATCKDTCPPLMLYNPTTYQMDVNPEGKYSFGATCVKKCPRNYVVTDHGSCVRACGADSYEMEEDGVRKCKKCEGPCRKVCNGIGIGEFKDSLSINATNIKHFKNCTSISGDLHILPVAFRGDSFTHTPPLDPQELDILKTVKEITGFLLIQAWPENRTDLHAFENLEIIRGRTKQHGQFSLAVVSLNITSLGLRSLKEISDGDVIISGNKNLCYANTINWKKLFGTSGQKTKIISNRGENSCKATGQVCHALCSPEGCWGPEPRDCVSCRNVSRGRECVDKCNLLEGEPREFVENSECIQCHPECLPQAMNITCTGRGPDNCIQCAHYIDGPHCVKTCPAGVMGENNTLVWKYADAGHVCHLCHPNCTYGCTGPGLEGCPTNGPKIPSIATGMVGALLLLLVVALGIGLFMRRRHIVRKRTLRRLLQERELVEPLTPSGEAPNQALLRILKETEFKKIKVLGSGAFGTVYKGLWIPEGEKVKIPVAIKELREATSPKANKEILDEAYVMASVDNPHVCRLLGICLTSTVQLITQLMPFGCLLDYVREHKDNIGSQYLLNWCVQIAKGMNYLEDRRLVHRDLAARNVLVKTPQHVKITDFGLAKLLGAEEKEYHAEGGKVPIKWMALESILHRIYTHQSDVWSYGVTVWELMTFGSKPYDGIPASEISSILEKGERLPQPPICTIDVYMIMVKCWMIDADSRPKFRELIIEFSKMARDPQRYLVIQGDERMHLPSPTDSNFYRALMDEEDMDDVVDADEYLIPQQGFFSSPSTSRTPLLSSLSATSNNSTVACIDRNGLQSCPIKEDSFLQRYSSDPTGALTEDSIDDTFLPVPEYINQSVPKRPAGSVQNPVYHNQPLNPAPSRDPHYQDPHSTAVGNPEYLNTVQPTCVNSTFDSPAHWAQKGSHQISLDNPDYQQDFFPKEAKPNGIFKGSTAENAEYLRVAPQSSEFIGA
T10 sequence (P10721 26-976): as the sequence (P10721 26-976 V560G) above, with G535V counted along it
T8 sequence (P04626 23-1255): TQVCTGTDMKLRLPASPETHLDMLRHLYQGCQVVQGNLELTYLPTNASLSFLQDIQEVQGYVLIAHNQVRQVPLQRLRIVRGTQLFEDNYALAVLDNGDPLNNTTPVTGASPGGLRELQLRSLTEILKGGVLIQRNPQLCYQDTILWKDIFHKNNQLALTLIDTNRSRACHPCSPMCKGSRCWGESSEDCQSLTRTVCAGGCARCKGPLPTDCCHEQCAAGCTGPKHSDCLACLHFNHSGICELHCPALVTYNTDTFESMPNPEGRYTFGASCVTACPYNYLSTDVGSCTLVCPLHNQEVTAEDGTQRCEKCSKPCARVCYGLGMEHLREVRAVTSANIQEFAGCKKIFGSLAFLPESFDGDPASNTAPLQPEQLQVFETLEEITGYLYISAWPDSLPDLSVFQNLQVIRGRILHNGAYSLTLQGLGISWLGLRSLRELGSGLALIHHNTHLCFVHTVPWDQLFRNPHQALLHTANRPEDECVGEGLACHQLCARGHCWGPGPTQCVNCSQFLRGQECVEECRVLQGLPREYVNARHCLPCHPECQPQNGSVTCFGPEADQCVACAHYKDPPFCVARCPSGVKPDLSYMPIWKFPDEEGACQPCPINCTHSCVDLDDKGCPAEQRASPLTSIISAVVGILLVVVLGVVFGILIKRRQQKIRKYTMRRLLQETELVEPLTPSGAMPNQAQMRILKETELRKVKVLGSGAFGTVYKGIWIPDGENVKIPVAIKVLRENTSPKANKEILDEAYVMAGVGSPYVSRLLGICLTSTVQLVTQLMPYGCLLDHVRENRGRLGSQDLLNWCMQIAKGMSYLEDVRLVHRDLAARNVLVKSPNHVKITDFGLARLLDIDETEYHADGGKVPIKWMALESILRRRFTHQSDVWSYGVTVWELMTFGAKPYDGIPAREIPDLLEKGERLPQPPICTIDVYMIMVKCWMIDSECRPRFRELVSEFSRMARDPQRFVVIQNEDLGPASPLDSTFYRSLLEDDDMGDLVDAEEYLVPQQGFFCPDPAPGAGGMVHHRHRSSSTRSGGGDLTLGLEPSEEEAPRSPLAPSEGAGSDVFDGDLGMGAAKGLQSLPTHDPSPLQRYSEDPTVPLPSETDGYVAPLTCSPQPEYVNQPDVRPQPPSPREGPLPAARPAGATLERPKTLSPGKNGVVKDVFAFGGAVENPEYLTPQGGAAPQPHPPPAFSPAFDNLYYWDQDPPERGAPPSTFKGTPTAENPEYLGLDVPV

intravenous plasma clearance compared to dasatinib and compound III [1]	V [1, 3]	V [1, 4]	ratio of lung tissue concentration to plasma concentration, compared to dasatinib [2]	inhibition at 0.01 µM (EGFR)	inhibition at 0.01 µM (KIT(V560G))	inhibition at 0.01 µM (p38β)	inhibition at 0.01 µM (p38α)	inhibition at 0.01 µM (RAF1)	inhibition at 0.01 µM (HER2)	inhibition at 0.01 µM (KIT)	inhibition at 0.01 µM (BRAF)	Compound	intravenous volume of distribution compared to dasatinib and compound III [1]	also measured
much lower intravenous plasma clearance	1 ± 0 L/kg	–	–	–	–	–	–	–	–	–	–	[2H]c1cc(C)c(NC(=O)c2cnc(Nc3cc(N4CC[C@@H](O)C4)nc(C)n3)s2)c(Cl)c1 [Compound V, N-(2-chloro-4-deutero-6-methylphenyl)-2-[[2-methyl-6-((R)-3-hydroxypyrrolidin-1-yl)pyrimidin-4-yl]amino]thiazole-5-carboxamide]	significantly lower intravenous volume of distribution values	–
much lower intravenous plasma clearance	–	1 ± 0 L/kg	significantly lower ratios	–	–	–	–	–	–	–	–	Cc1nc(Nc2ncc(C(=O)Nc3c(C)cccc3Cl)s2)cc(N2CC[C@H](O)C2)n1 [Compound X, N-(2-chloro-6-methylphenyl)-2-[[2-methyl-6-((S)-3-hydroxypyrrolidin-1-yl)pyrimidin-4-yl]amino]thiazole-5-carboxamide]	significantly lower intravenous volume of distribution values	F, percent oral bioavailability ([1]; PO 5 mg/kg versus intravenous 1 mg/kg, AUCinf dose normalized, Table 3): 18.9±2%
–	–	–	–	< 50%	> 50%	< 50%	< 50%	< 50%	< 50%	> 50%	< 50%	[2H]c1cc(C)c(NC(=O)c2cnc(Nc3cc(N4CCC(O)CC4)nc(C)n3)s2)c(Cl)c1 [Compound II, N-(2-chloro-4-deuterio-6-methyl-phenyl)-2-[[6-(4-hydroxy-1-piperidyl)-2-methyl-pyrimidin-4-yl]amino]thiazole-5-carboxamide]	–	inhibition at 0.001 µM (EGFR; at 1 nM): < 50%; inhibition at 0.1 µM (EGFR; at 100 nM): > 50%; inhibition at 0.001 µM (KIT(V560G); at 1 nM): < 50%; inhibition at 0.1 µM (KIT(V560G); at 100 nM): > 50%; inhibition at 0.001 µM (YES(T348I); at 1 nM): < 50%; inhibition at 0.001 µM (ABL(T315I)): < 50%; inhibition at 0.001 µM (p38β; at 1 nM): < 50%; inhibition at 0.1 µM (p38β; at 100 nM): < 50%; inhibition at 0.001 µM (p38α; at 1 nM): < 50%; inhibition at 0.1 µM (p38α; at 100 nM): < 50%; inhibition at 0.001 µM (RAF1; at 1 nM): < 50%; inhibition at 0.1 µM (RAF1; at 100 nM): < 50%; inhibition at 0.001 µM (HER2; at 1 nM): < 50%; inhibition at 0.1 µM (HER2; at 100 nM): < 50%; inhibition at 0.001 µM (FYN(isoform b); at 1 nM): > 50%; inhibition at 0.001 µM (KIT; at 1 nM): < 50%; inhibition at 0.1 µM (KIT; at 100 nM): > 50%; inhibition at 0.001 µM (BRAF; at 1 nM): < 50%; inhibition at 0.1 µM (BRAF; at 100 nM): < 50%
–	–	–	–	< 50%	< 50%	< 50%	< 50%	< 50%	< 50%	< 50%	< 50%	[2H]c1cc(C)c(NC(=O)c2cnc(Nc3cc(N4CCCCC4)nc(C)n3)s2)c(Cl)c1 [Compound I, N-(2-chloro-4-deuterio-6-methyl-phenyl)-2-[[2-methyl-6-(1-piperidyl)pyrimidin-4-yl]amino]thiazole-5-carboxamide]	–	inhibition at 0.01 µM (EGFR(d746-750)): < 50%; inhibition at 0.01 µM (YES(T348I); at 10 nM): < 50%; inhibition at 0.01 µM (RET(Y791F)): < 50%; inhibition at 0.01 µM (PDGFRα(V561D)): < 50%; inhibition at 0.01 µM (RET(G691 S)): < 50%; inhibition at 0.01 µM (FYN(isoform b); at 10 nM): > 50%; inhibition at 0.01 µM (PDGFRα(D842V)): < 50%; inhibition at 0.01 µM (WNK3): < 50%; inhibition at 0.01 µM (PKD1): < 50%
much lower intravenous plasma clearance	1 ± 0 L/kg	–	–	–	–	–	–	–	–	–	–	[2H]c1cc(C)c(NC(=O)c2cnc(Nc3cc(N4CC[C@H](O)C4)nc(C)n3)s2)c(Cl)c1 [Compound IV, N-(2-chloro-4-deutero-6-methylphenyl)-2-[[2-methyl-6-((S)-3-hydroxypyrrolidin-1-yl)pyrimidin-4-yl]amino]thiazole-5-carboxamide]	significantly lower intravenous volume of distribution values	–
much lower intravenous plasma clearance	–	1 ± 0 L/kg	significantly lower ratios	–	–	–	–	–	–	–	–	Cc1nc(Nc2ncc(C(=O)Nc3c(C)cccc3Cl)s2)cc(N2CC[C@@H](O)C2)n1 [Compound XI, N-(2-chloro-6-methylphenyl)-2-[[2-methyl-6-((R)-3-hydroxypyrrolidin-1-yl)pyrimidin-4-yl]amino]thiazole-5-carboxamide]	significantly lower intravenous volume of distribution values	–
